System: primary CLL cells
Assay: tetrazolium-based (MTS) cell viability assay on fresh primary CLL cells
Design: species or system human
Details: 10 nM to 10 μM, 3 days
Excerpt: The viability data were normalized to untreated controls and were used to calculate IC50 values.

CCS(=O)(=O)N1CCN(c2ccc(Nc3ncc(C(N)=O)c(NC4CC4)n3)cc2)CC1 [Compound 2, 4-(cyclopropylamino)-2-(4-(4-(ethylsulfonyl)piperazin-1-yl)phenylamino)pyrimidine-5-carboxamide]
single agent activity in CLL: single agent activity
